This is an account of results in US20250333420A1, “FUSED BICYCLIC PYRIMIDONES AS WRN INHIBITORS” (INCYTE CORPORATION, priority 2023, published 2025).

Assay [1] addresses T1, WRN (Homo sapiens, UniProt Q14191).
T1 construct: A His-tagged construct of WRN (AA S2-S1235) was produced and used for the ATPase assay; His tag; made in house; host or cells: Sf9 insect cells (baculovirus, pFastBac1)
As to the kind of experiment: WRN helicase activity assay (fluorescence DNA unwinding). The class given is biochemical. Particulars: 1-hr pre-incubation with enzyme; 100 μM ATP, 25 nM forked dsDNA, 1 nM WRN; geometric mean of at least 2 replicates. As to the method:
Compounds of the examples were tested for WRN helicase activity. DNA encoding the target protein, 6×HIS-TEV-WRN-517-945, was produced, cloned and transfected as detailed in Example D. To determine the inhibitory properties of the compounds, a 384 wells plate-based Helicase assay was set up to measure the extent of DNA unwinding (Helicase) activity of WRN. The WRN Helicase assay was designed to measure increase in fluorescence signal using a fluorescence based, donor-quencher paired forked dsDNA oligomer substrate (custom synthesis from Sigma-Aldrich) prepared by annealing equal amounts of oligo GPat-1 ([BHQ2][…]) and oligo GPat-2 ([…][TAM]). Continuous measurement of fluorescent signal was used to optimize the buffer conditions, concentration of enzyme (WRN), concentration of substrates (ATP & dsDNA), and the linearity of the Helicase reaction. All solutions were prepared in the following assay buffer: 50 mM Tris-HCl, pH-7.5, 2 mM MgCl2, 50 mM NaCl, 1 mM EGTA, 0.01% P-20, 0.05% BSA, and 2 mM DTT prepared with nuclease free water.
A serial dilution (1:3 scheme) of the compounds was prepared in neat DMSO and 100 nL of the compounds was dispensed in the Greiner black low volume (Greiner #784076) 384 wells assay plate. An 1-hr pre-incubation of the compounds with enzyme was included. A His-tagged construct of WRN (AA S2-S1235) was produced and used for the ATPase assay. Maximum inhibition control wells were set up with the addition of only assay buffer, and no inhibition control wells were set up with neat DMSO without test compounds. The reaction was initiated by addition of 5 μL substrate mix (200 μM ultrapure ATP, and 50 nM dsDNA prepared in assay buffer) and incubated at 25° C. for 35 min. A typical Helicase reaction consists of 25 nM forked dsDNA, 100 μM ATP, and 1 nM WRN prepared in assay buffer. The WRN Helicase reaction was quenched by the addition of 5 μL ‘STOP’ solution containing 100 mM EDTA (final EDTA concentration 33.33 mM) prepared in assay buffer. The plates were read on BMG PHERAstar FSX using 540/590 module to measure an increase of fluorescence. Data analysis was carried out using the Genedata software following % of control normalization. Fitting parameters include dose response IC50, Hill slope (n), maximum inhibition (S∞), and minimum inhibition (S0). The reported IC50 values for compounds in this invention are the geometric means of at least 2 independent replicates.

Assay [2] concerns the target T1, WRN. Briefly: WRN ATPase activity assay (ADP-Glo). The class given is biochemical. To be noted: 1-hr pre-incubation with enzyme; 100 μM ATP, 25 nM forked dsDNA, 1 nM WRN; geometric mean of at least 2 replicates. As to the method: Compounds of the Examples were tested for WRN ATPase activity. WRN ATPase activity catalyzes ATP hydrolysis to produce ADP and phosphate. DNA encoding the target protein, 6×HIS-TEV-WRN-517-945, was produced, cloned and transfected as detailed in Example D. The amount of ADP produced was measured using ADP-Glo™ Kinase Assay kit from Promega Corporation in a Greiner white regular volume 384 wells assay plate (Greiner #781075). Data was normalized to a standard curve generated using various ADP concentrations and the corresponding luminescent signal intensities at each concentration. The assay conditions were optimized for enzyme concentration (WRN), substrate concentrations (ATP & dsDNA), and the linearity of the ATPase reaction, in the following assay buffer: 50 mM Tris-HCl, pH-7.5, 2 mM MgCl2, 50 mM NaCl, 1 mM EGTA, 0.01% P-20, 0.05% BSA, and 2 mM DTT prepared with nuclease free water.
A serial dilution (1:3 scheme) of the compounds were prepared in neat DMSO, with 100 nL of the compounds dispensed in the 384 wells assay plate. An 1-hr pre-incubation of the compounds with enzyme was included. A His-tagged construct of WRN (AA S2-S1235) was produced and used for the ATPase assay. Maximum inhibition control wells were set up with the addition of only assay buffer, and no inhibition control wells were set up with neat DMSO without test compounds. The reaction was initiated by addition of 5 μL substrate mix (200 μM ultrapure ATP, and 50 nM dsDNA prepared in assay buffer) and incubated at 25° C. for 35 min. A forked dsDNA oligomer substrate was prepared by annealing equal amounts of oligo GPat-1 ([BHQ2][…]) and oligo GPat-2 ([…][TAM]) and was used as dsDNA substrate for WRN ATPase assay. A typical ATPase reaction consists of 25 nM forked dsDNA, 100 μM ATP, and 1 nM WRN prepared in assay buffer. The WRN ATPase reaction was stopped by the addition of 5 μL of ADP-Glo Reagent from ADP-Glo™ Kinase Assay kit and incubated for 40 min to deplete the unreacted ATP. Afterwards, 5 μL of Kinase Detection Reagent from the ADP-Glo™ Kinase Assay kit was added and incubated for 1 hr for the development of luminescence signal.
Luminesce signals were measured on BMG PHERAstar FSX using luminescence protocol. Data analysis was carried out using Genedata software following % of control normalization. Fitting parameters include dose response IC50, Hill slope (n), maximum inhibition (S∞), and minimum inhibition (S0). The reported IC50 values for compounds in this invention are the geometric means of at least 2 independent replicates.

The structures appear in SMILES notation. Where a name gives a salt, the structure may show the parent alone.

T1 sequence (Q14191 2-1235): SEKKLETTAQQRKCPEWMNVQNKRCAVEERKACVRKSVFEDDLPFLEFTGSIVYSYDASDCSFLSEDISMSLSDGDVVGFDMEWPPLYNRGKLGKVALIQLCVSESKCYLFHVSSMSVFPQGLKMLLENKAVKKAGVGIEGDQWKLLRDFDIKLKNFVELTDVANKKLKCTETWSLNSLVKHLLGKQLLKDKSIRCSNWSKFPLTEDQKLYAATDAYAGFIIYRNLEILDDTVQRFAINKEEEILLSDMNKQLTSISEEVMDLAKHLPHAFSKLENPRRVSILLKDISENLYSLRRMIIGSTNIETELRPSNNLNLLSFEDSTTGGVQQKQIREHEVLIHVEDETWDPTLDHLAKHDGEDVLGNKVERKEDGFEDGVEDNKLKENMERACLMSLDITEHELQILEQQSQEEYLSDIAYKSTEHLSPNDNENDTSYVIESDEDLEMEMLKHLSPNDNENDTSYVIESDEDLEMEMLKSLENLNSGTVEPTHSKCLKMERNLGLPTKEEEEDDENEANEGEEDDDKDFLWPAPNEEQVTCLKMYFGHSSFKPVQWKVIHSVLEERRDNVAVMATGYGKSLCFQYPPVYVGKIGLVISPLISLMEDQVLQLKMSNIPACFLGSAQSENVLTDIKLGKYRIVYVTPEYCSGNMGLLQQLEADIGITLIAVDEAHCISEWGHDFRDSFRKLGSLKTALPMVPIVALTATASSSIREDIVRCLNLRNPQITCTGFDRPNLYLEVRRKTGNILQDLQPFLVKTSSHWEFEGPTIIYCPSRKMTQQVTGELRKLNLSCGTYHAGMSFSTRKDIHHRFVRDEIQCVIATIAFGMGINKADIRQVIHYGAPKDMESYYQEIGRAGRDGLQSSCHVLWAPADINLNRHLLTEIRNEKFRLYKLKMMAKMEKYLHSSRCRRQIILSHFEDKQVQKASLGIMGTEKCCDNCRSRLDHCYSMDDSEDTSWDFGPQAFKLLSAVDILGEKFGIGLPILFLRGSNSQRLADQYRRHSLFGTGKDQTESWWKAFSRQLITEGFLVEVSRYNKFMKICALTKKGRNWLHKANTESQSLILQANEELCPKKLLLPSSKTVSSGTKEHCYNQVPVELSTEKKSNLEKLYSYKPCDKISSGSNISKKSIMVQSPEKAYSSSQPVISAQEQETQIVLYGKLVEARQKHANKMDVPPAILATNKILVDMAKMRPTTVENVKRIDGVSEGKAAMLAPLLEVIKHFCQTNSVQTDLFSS

As to `C=CC(=O)Nc1ccccc1-n1c(CC)nc2c(cnn2CC(=O)Nc2ccc(C(F)(F)F)cc2)c1=O` [Example 1, N-(2-(6-Ethyl-4-oxo-1-(2-oxo-2-((4-(trifluoromethyl)phenyl)amino)ethyl)-1,4-dihydro-5H-pyrazolo[3,4-d]pyrimidin-5-yl)phenyl)acrylamide], the IC50 at WRN [1] and against WRN [2] was 1000 to 5000 nM throughout.
On to `C=CS(=O)(=O)Nc1ccccc1-n1c(CC)nc2c(cnn2CC(=O)Nc2ccc(C(F)(F)F)cc2)c1=O` [Example 2, 2-(6-Ethyl-4-oxo-5-(2-(vinylsulfonamido)phenyl)-4,5-dihydro-1H-pyrazolo[3,4-d]pyrimidin-1-yl)-N-(4-(trifluoromethyl)phenyl)acetamide], for which the IC50 at WRN [1] and against WRN [2] was under 100 nM each time.
In the case of `C=CC(=O)Nc1ccccc1-n1c(CC)nc2c(c(C)c(C)n2CC(=O)Nc2ccc(C(F)(F)F)cc2)c1=O` [Example 3, N-(2-(2-Ethyl-5,6-dimethyl-4-oxo-7-(2-oxo-2-((4-(trifluoromethyl)phenyl)amino)ethyl)-4,7-dihydro-3H-pyrrolo[2,3-d]pyrimidin-3-yl)phenyl)acrylamide], the IC50 against WRN [1] and against WRN [2] was under 100 nM in each case.
Consider `C=CC(=O)Nc1ccccc1-n1c(CC)nc2c(c(C)c(C)n2CC(=O)Nc2ccc(C(F)(F)F)cc2Cl)c1=O` [Example 4, N-(2-(7-(2-((2-Chloro-4-(trifluoromethyl)phenyl)amino)-2-oxoethyl)-2-ethyl-5,6-dimethyl-4-oxo-4,7-dihydro-3H-pyrrolo[2,3-d]pyrimidin-3-yl)phenyl)acrylamide], for which the IC50 at WRN [1] and at WRN [2] was under 100 nM in each case.
Turning to `C=CC(=O)Nc1ccccc1-n1c(CC)nc2c(c(C)c(C)n2CC(=O)Nc2ccc(F)cc2)c1=O` [Example 5, N-(2-(2-Ethyl-7-(2-((4-fluorophenyl)amino)-2-oxoethyl)-5,6-dimethyl-4-oxo-4,7-dihydro-3H-pyrrolo[2,3-d]pyrimidin-3-yl)phenyl)acrylamide], the IC50 against WRN [1] and on WRN [2] was under 100 nM throughout.
For the compound `C=CC(=O)Nc1cc(C(=O)NCC)ccc1-n1c(CC)nc2c(c(C)c(C)n2CC(=O)Nc2ccc(C(F)(F)F)cc2)c1=O` [Example 6, 3-Acrylamido-N-ethyl-4-(2-ethyl-5,6-dimethyl-4-oxo-7-(2-oxo-2-((4-(trifluoromethyl)phenyl)amino)ethyl)-4,7-dihydro-3H-pyrrolo[2,3-d]pyrimidin-3-yl)benzamide, trifluoroacetate salt], the IC50 on WRN [1] and against WRN [2] was under 100 nM each time.
Take `C=CC(=O)Nc1cc(C(=O)NCC)ccc1-n1c(CC)nc2c(c(C)c(C)n2CC(=O)Nc2ccc(F)cc2)c1=O` [Example 7, 3-Acrylamido-N-ethyl-4-(2-ethyl-7-(2-((4-fluorophenyl)amino)-2-oxoethyl)-5,6-dimethyl-4-oxo-4,7-dihydro-3H-pyrrolo[2,3-d]pyrimidin-3-yl)benzamide, trifluoroacetate salt]: the IC50 against WRN [1] and against WRN [2] was under 100 nM in each case.
